Data on eight molecules can be found in PubChem BioAssay (NCI).

Test systems include OVCAR-4 ovarian; 786-0 renal; SN12C renal; SK-MEL-2 melanoma; EKVX NSCLC; SR leukemia; MOLT-4 leukemia; T-47D breast; SK-MEL-28 melanoma; CAKI-1 renal.
Common to all, as to test: DTP human tumour cell line panel, 48 h

The structures appear in SMILES notation.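 Where inhibition never reached the appropriate level, the endpoint shown equals the highest concentration tested. Otherwise, values were interpolated linearly from a five-concentration, 48-hour dose response in 96-well plates. GI50 is the concentration that inhibits growth by half. TGI denotes the concentration required for complete inhibition of growth.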

The GI50 is the concentration at which growth is held to half of that of the control. As a reminder, the TGI is the concentration at which net growth stops. High values mean less potent growth arrest, low ones more potent growth arrest. Consider `COc1cc(-c2cc(-c3ccc(Nc4ccnc5cc(Cl)ccc45)cc3)nc(N3CCOCC3)n2)cc(OC)c1OC`, for which the GI50 is 1.89 µM in the experiment on OVCAR-4 ovarian; 2.08 µM in the experiment on 786-0 renal; 1.93 µM with SN12C renal; 11.8 µM in the experiment on SK-MEL-2 melanoma; 2.62 µM with EKVX NSCLC; 0.468 µM with SR leukemia. Besides, the GI50 in the experiment with MOLT-4 leukemia was 2.58 µM; in the experiment on T-47D breast, 2.06 µM; in the experiment with SK-MEL-28 melanoma it was 1.98 µM. Moreover, the TGI in the experiment on OVCAR-4 ovarian is 4.3 µM; with 786-0 renal it was 4.81 µM; with SN12C renal, 3.81 µM; in the experiment on SK-MEL-2 melanoma it was 48 µM; with EKVX NSCLC, 9.73 µM; with SR leukemia, 2.41 µM. Besides, the TGI worked out at 9.2 µM with MOLT-4 leukemia, 4.65 µM in the experiment on T-47D breast and 3.93 µM in the experiment with SK-MEL-28 melanoma.

As to `Cc1cn(C2C=CC(CO)O2)c(=O)[nH]c1=O` (stereo not given), the TGI with OVCAR-4 ovarian, with CAKI-1 renal, with 786-0 renal, in the experiment with SN12C renal, in the experiment with SK-MEL-2 melanoma and in the experiment on EKVX NSCLC was above 1000 µM in each case. Further, the TGI in the experiment on SR leukemia, in the experiment on MOLT-4 leukemia and in the experiment with T-47D breast was above 1000 µM throughout.

As to `COc1cc2c(cc1OC)C(Sc1ccc(SC)cc1)c1c(nc(N)c(C#N)c1N)O2` (stereo not given), the GI50 was 1.64 µM in the experiment on OVCAR-4 ovarian; 1.53 µM in the experiment on 786-0 renal; 1.48 µM in the experiment on SK-MEL-2 melanoma; 1.78 µM in the experiment with EKVX NSCLC; 0.354 µM with SR leukemia; 1.07 µM in the experiment on MOLT-4 leukemia. The GI50 with T-47D breast was 1.62 µM; with SK-MEL-28 melanoma, 1.72 µM. For the same molecule, the TGI with OVCAR-4 ovarian stood at 3.27 µM; in the experiment on 786-0 renal, 2.85 µM; with SK-MEL-2 melanoma it was 2.9 µM; in the experiment on EKVX NSCLC it was 3.32 µM; in the experiment on SR leukemia, 2.35 µM; in the experiment on MOLT-4 leukemia, 4.08 µM. The TGI in the experiment with T-47D breast was found to be 4.26 µM; in the experiment on SK-MEL-28 melanoma, 3.22 µM.

As to `COc1ccc2c(c1)CC[C@@H]1[C@@H]2CC[C@]2(C)[C@@H](NC(=O)/C=C/c3ccc(O)c(O)c3)CC[C@@H]12`, the GI50 in the experiment on OVCAR-4 ovarian was 11.9 µM; in the experiment on CAKI-1 renal, 2.03 µM; in the experiment on 786-0 renal, 2.34 µM; in the experiment with SN12C renal it was 2.61 µM; with SK-MEL-2 melanoma it was 2.77 µM; in the experiment on EKVX NSCLC, 9.98 µM. For the same molecule, the figures for the GI50 in the experiment on SR leukemia, with T-47D breast and in the experiment with SK-MEL-28 melanoma were 1.51 µM, 17.3 µM and 18.5 µM, respectively. The TGI in the experiment with OVCAR-4 ovarian was 74.7 µM; in the experiment with CAKI-1 renal, 4.09 µM; in the experiment with 786-0 renal it was 5.48 µM; with SN12C renal it was 9.3 µM; in the experiment with SK-MEL-2 melanoma, 11.7 µM; in the experiment with EKVX NSCLC, 24.5 µM. Besides, the values for the TGI in the experiment on SR leukemia, in the experiment on T-47D breast and with SK-MEL-28 melanoma were 4.21 µM, 43 µM and above 100 µM, respectively.

Turning to `COC(=O)C(=CNC(N)=O)C(=O)OC`, the TGI in the experiment with CAKI-1 renal, with 786-0 renal, with SN12C renal, in the experiment on SK-MEL-2 melanoma, in the experiment on EKVX NSCLC and in the experiment with SR leukemia was above 100 µM in each case. Moreover, the TGI in the experiment with MOLT-4 leukemia, in the experiment with T-47D breast and with SK-MEL-28 melanoma was above 100 µM in each case.

Consider `CCOc1cc(Br)c(C(C)NC(=O)c2cccc(OC)c2)cc1OCC` (stereo not given), for which the GI50 is 13.2 µM with OVCAR-4 ovarian; 13.3 µM with CAKI-1 renal; 20.4 µM in the experiment on 786-0 renal; 25.2 µM with SN12C renal; 5.54 µM with SK-MEL-2 melanoma; 3.26 µM with SR leukemia. The GI50 is 5.64 µM in the experiment on MOLT-4 leukemia, 9.53 µM with T-47D breast and 12 µM with SK-MEL-28 melanoma. The TGI in the experiment on OVCAR-4 ovarian is above 93.5 µM; in the experiment on CAKI-1 renal, above 100 µM; in the experiment on 786-0 renal, above 100 µM; with SN12C renal it was above 100 µM; in the experiment on SK-MEL-2 melanoma, above 76.7 µM; in the experiment on SR leukemia, above 100 µM. Also, the TGI with MOLT-4 leukemia, in the experiment with T-47D breast and in the experiment on SK-MEL-28 melanoma was above 100 µM in each case.

For the molecule `COc1cccc(-c2ccc3c(c2)C2CCN(Cc4ccccc4)C3C2)c1` (stereo not given), the GI50 in the experiment on OVCAR-4 ovarian is 5.71 µM; in the experiment with CAKI-1 renal it was 10.8 µM; with 786-0 renal it was 13.9 µM; in the experiment on SN12C renal it was 11.2 µM; with SK-MEL-2 melanoma it was 5.04 µM; in the experiment on SR leukemia, 3.95 µM. Moreover, the GI50 in the experiment on MOLT-4 leukemia is 7.17 µM; in the experiment with T-47D breast, 5.19 µM; with SK-MEL-28 melanoma it was 13.4 µM. The TGI in the experiment on OVCAR-4 ovarian was found to be 58.2 µM; with CAKI-1 renal, 40.1 µM; in the experiment on 786-0 renal, 36.1 µM; with SN12C renal it was 30.3 µM; in the experiment with SK-MEL-2 melanoma, 18 µM; with SR leukemia it was 13.8 µM. Further, the values for the TGI in the experiment with MOLT-4 leukemia, in the experiment with T-47D breast and with SK-MEL-28 melanoma were 40.5 µM, 38.5 µM and 65.9 µM, respectively.

With `COc1cc(OC)c2nccc(NCCCN(C)C)c2c1[N+](=O)[O-]`, the TGI in the experiment on OVCAR-4 ovarian, with CAKI-1 renal, with 786-0 renal, in the experiment on SN12C renal, in the experiment on SK-MEL-2 melanoma and in the experiment with SR leukemia was above 100 µM each time. In addition, the TGI in the experiment with MOLT-4 leukemia, with T-47D breast and in the experiment with SK-MEL-28 melanoma was above 100 µM in each case.
